Measurements reported in patent US20200024278A1, “COMPOSITION COMPRISING ANTIBIOTIC COMPOUND AND AN HETEROCYCLIC COMPOUND AND THEIR USE IN PREVENTING OR TREATING BACTERIAL INFECTIONS” (MUTABILIS, priority 2016, published 2020).

Columns and labels:
Assay in all cases: MIC, broth microdilution (CLSI), substance alone or ATB combined with compound at 4 or 8 μg/mL
ECO 190317 = format: cell-based, E. coli; details: ECO 190317
Procedure, shortened: (§1)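 Broth microdilution; ca-MHB; 5·10^5 CFU/mL; 35° C, 16-20 h; compound alone or fixed 4/8 μg/mL with antibiotic series; endpoint = no visible growth.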

ECO UFR39 = format: cell-based, E. coli; details: ECO UFR39
Procedure, shortened: as §1

KPN 6299 = format: cell-based, K. pneumoniae
Procedure, shortened: as §1

KPN BAA-1898 = format: cell-based, K. pneumoniae; details: KPN BAA-1898
Procedure, shortened: as §1

KPN UFR42 = format: cell-based, K. pneumoniae; details: KPN UFR42
Procedure, shortened: as §1

ECL P99 = format: cell-based, E. cloacae; details: ECL P99
Procedure, shortened: as §1

[1] = Escherichia coli, antibiotic alone, read-out: MIC ATB alone
[2] = Klebsiella pneumoniae, antibiotic alone, read-out: MIC ATB alone

SMILES: NCC[C@H](O)C(=O)N[C@@H]1C[C@H](N)[C@@H](O[C@H]2O[C@H](CN)[C@@H](O)[C@H](O)[C@H]2O)[C@H](O)[C@H]1O[C@H]1O[C@H](CO)[C@@H](O)[C@H](N)[C@H]1O [AN, Amikacin, reference compound]
- MIC ATB combined with Example 1 @8 μg/ml (ECO 190317; with Example 1 @8 μg/ml): <0.031 µg/mL
- MIC ATB combined with Example 1 @8 μg/ml (ECO 190317; with Example 1 at 8 μg/ml): <0.031 µg/mL
- MIC ATB combined with Example 7 @8 μgml (ECO 190317; with Example 7 at 8 μg/ml): <0.031 µg/mL
- MIC ATB combined with Example 9 @4 μg/ml (ECO 190317; with Example 9 @4 μg/ml): <0.031 µg/mL
- MIC ATB combined with Example 9 @4 μg/ml (ECO 190317; with Example 9 at 4 μg/ml): <0.031 µg/mL
- MIC ATB combined with Example 11 @8 μg/ml (ECO 190317; with Example 11 at 8 μg/ml): <0.031 µg/mL
- MIC ATB combined with Example 12 @8 μg/ml (ECO 190317; with Example 12 at 8 μg/ml): <0.031 µg/mL
- MIC ATB combined with Example 13 @8 μg/ml (ECO 190317; with Example 13 at 8 μg/ml): <0.031 µg/mL
- MIC ATB combined with Example 14 @8 μg/ml (ECO 190317; with Example 14 at 8 μg/ml): <0.031 µg/mL
- MIC ATB combined with Example 15 @4 μgml (ECO 190317; with Example 15 at 4 μg/ml): <0.031 µg/mL
- MIC ATB combined with Example 16 @4 μg/ml (ECO 190317; with Example 16 at 4 μg/ml): <0.031 µg/mL
- MIC (ECO 190317; [1]): 8 µg/mL
- MIC ATB combined with Example 1 @8 μg/ml (ECO UFR39; with Example 1 @8 μg/ml): <=0.031 μg/mL
- MIC ATB combined with Example 1 @8 μg/ml (ECO UFR39; with Example 1 at 8 μg/ml): <=0.031 μg/mL
- MIC ATB combined with Example 7 @8 μgml (ECO UFR39; with Example 7 at 8 μg/ml): <0.031 µg/mL
- MIC ATB combined with Example 9 @4 μg/ml (ECO UFR39; with Example 9 @4 μg/ml): <0.031 µg/mL
- MIC ATB combined with Example 9 @4 μg/ml (ECO UFR39; with Example 9 at 4 μg/ml): <0.031 µg/mL
- MIC ATB combined with Example 11 @8 μg/ml (ECO UFR39; with Example 11 at 8 μg/ml): <0.031 µg/mL
- MIC ATB combined with Example 12 @8 μg/ml (ECO UFR39; with Example 12 at 8 μg/ml): <0.031 µg/mL
- MIC ATB combined with Example 13 @8 μg/ml (ECO UFR39; with Example 13 at 8 μg/ml): 0.063 µg/mL
- MIC ATB combined with Example 14 @8 μg/ml (ECO UFR39; with Example 14 at 8 μg/ml): <0.031 µg/mL
- MIC ATB combined with Example 15 @4 μgml (ECO UFR39; with Example 15 at 4 μg/ml): <0.031 µg/mL
- MIC ATB combined with Example 16 @4 μg/ml (ECO UFR39; with Example 16 at 4 μg/ml): <0.031 µg/mL
- MIC (ECO UFR39; [1]): > 32 µg/mL
- MIC (KPN 6299; [2]): 16 µg/mL
- MIC ATB combined with Example 1 @8 μg/ml (KPN 6299; with Example 1 @8 μg/ml): 16 µg/mL
- MIC ATB combined with Example 1 @8 μg/ml (KPN 6299; with Example 1 at 8 μg/ml): 16 µg/mL
- MIC ATB combined with Example 7 @8 μgml (KPN 6299; with Example 7 at 8 μg/ml): 2 µg/mL
- MIC ATB combined with Example 9 @4 μg/ml (KPN 6299; with Example 9 @4 μg/ml): <0.031 µg/mL
- MIC ATB combined with Example 9 @4 μg/ml (KPN 6299; with Example 9 at 4 μg/ml): <0.031 µg/mL
- MIC ATB combined with Example 11 @8 μg/ml (KPN 6299; with Example 11 at 8 μg/ml): <0.031 µg/mL
- MIC ATB combined with Example 12 @8 μg/ml (KPN 6299; with Example 12 at 8 μg/ml): <0.031 µg/mL
- MIC ATB combined with Example 13 @8 μg/ml (KPN 6299; with Example 13 at 8 μg/ml): 4 µg/mL
- MIC ATB combined with Example 14 @8 μg/ml (KPN 6299; with Example 14 at 8 μg/ml): <0.031 µg/mL
- MIC ATB combined with Example 15 @4 μgml (KPN 6299; with Example 15 at 4 μg/ml): <=0.031 μg/mL
- MIC ATB combined with Example 16 @4 μg/ml (KPN 6299; with Example 16 at 4 μg/ml): <0.031 µg/mL
- MIC ATB combined with Example 1 @8 μg/ml (KPN BAA-1898; with Example 1 @8 μg/ml): 0.25 µg/mL
- MIC ATB combined with Example 1 @8 μg/ml (KPN BAA-1898; with Example 1 at 8 μg/ml): 0.25 µg/mL
- MIC ATB combined with Example 7 @8 μgml (KPN BAA-1898; with Example 7 at 8 μg/ml): 0.125 µg/mL
- MIC ATB combined with Example 9 @4 μg/ml (KPN BAA-1898; with Example 9 @4 μg/ml): <0.031 µg/mL
- MIC ATB combined with Example 9 @4 μg/ml (KPN BAA-1898; with Example 9 at 4 μg/ml): <0.031 µg/mL
- MIC ATB combined with Example 11 @8 μg/ml (KPN BAA-1898; with Example 11 at 8 μg/ml): <0.031 µg/mL
- MIC ATB combined with Example 12 @8 μg/ml (KPN BAA-1898; with Example 12 at 8 μg/ml): <0.031 µg/mL
- MIC ATB combined with Example 13 @8 μg/ml (KPN BAA-1898; with Example 13 at 8 μg/ml): 0.25 µg/mL
- MIC ATB combined with Example 14 @8 μg/ml (KPN BAA-1898; with Example 14 at 8 μg/ml): <0.031 µg/mL
- MIC ATB combined with Example 15 @4 μgml (KPN BAA-1898; with Example 15 at 4 μg/ml): <=0.031 μg/mL
- MIC ATB combined with Example 16 @4 μg/ml (KPN BAA-1898; with Example 16 at 4 μg/ml): <0.031 µg/mL
- MIC (KPN BAA-1898; Klebsiella pneumoniae, BAA1898, antibiotic alone, read-out: MIC ATB alone): 1 µg/mL
- MIC ATB combined with Example 1 @8 μg/ml (KPN UFR42; with Example 1 @8 μg/ml): >32 µg/mL
- MIC ATB combined with Example 1 @8 μg/ml (KPN UFR42; with Example 1 at 8 μg/ml): >32 µg/mL
- MIC ATB combined with Example 7 @8 μgml (KPN UFR42; with Example 7 at 8 μg/ml): >32 µg/mL
- MIC ATB combined with Example 9 @4 μg/ml (KPN UFR42; with Example 9 @4 μg/ml): >32 µg/mL
- MIC ATB combined with Example 9 @4 μg/ml (KPN UFR42; with Example 9 at 4 μg/ml): >32 µg/mL
- MIC ATB combined with Example 11 @8 μg/ml (KPN UFR42; with Example 11 at 8 μg/ml): 0.25 µg/mL
- MIC ATB combined with Example 12 @8 μg/ml (KPN UFR42; with Example 12 at 8 μg/ml): <0.031 µg/mL
- MIC ATB combined with Example 13 @8 μg/ml (KPN UFR42; with Example 13 at 8 μg/ml): >32 µg/mL
- MIC ATB combined with Example 14 @8 μg/ml (KPN UFR42; with Example 14 at 8 μg/ml): <0.031 µg/mL
- MIC ATB combined with Example 15 @4 μgml (KPN UFR42; with Example 15 at 4 μg/ml): >32 µg/mL
- MIC ATB combined with Example 16 @4 μg/ml (KPN UFR42; with Example 16 at 4 μg/ml): <0.031 µg/mL
- MIC (KPN UFR42; [2]): > 32 µg/mL
- MIC ATB combined with Example 1 @8 μg/ml (ECL P99; with Example 1 @8 μg/ml): <0.031 µg/mL
- MIC ATB combined with Example 1 @8 μg/ml (ECL P99; with Example 1 at 8 μg/ml): <0.031 µg/mL
- MIC ATB combined with Example 7 @8 μgml (ECL P99; with Example 7 at 8 μg/ml): 0.063 µg/mL
- MIC ATB combined with Example 9 @4 μg/ml (ECL P99; with Example 9 @4 μg/ml): <0.031 µg/mL
- MIC ATB combined with Example 9 @4 μg/ml (ECL P99; with Example 9 at 4 μg/ml): <0.031 µg/mL
- MIC ATB combined with Example 11 @8 μg/ml (ECL P99; with Example 11 at 8 μg/ml): <0.031 µg/mL
- MIC ATB combined with Example 12 @8 μg/ml (ECL P99; with Example 12 at 8 μg/ml): <0.031 µg/mL
